How the values were obtained:
[1] = Solubility and fluorescence behaviour of ICG in serum and vitreous humor
Experimental: ICG (Acros Organics, Fair Lawn, N.J.) was dissolved in PBS, pH 7.4, with 0.1% Tween 20 at 25° C. to make the aqueous standards. Fluorescence of a series of 1:2 dilutions were made with a spectrofluorometer beginning with a maximum concentration of 100 ng/ml down to a “blank” comprising PBS, pH 7.4, with 0.1% Tween with essentially no ICG (only trace amounts).

[2] = pH stability of ICG emission intensity; type: physicochemical

CC1(C)C(/C=C/C=C/C=C/C=C2\N(CCCCS(=O)(=O)[O-])c3ccc4ccccc4c3C2(C)C)=[N+](CCCCS(=O)(=O)[O-])c2ccc3ccccc3c21.[Na+] [ICG, indocyanin green]
solubility in serum and vitreous humor after pre-dissolution ([1]; first dissolved in PBS, pH 7.4, 0.1% Tween 20 (≧1000 ng/ml), then mixed with bovine vitreous humor or human serum): remain in solution | spectra and quantum yield in serum and vitreous humor compared to ICG in PBS with 0.1% Tween 20 ([1]; first dissolved in PBS, pH 7.4, 0.1% Tween 20, then mixed with bovine vitreous humor or human serum): maintain its spectra and quantum yield | solubility when mixed directly with serum or vitreous humor ([1]; mixed directly with serum or vitreous humor): not completely soluble | pH range across which emission intensity is stable [2]: 5-10 pH

Reference: patent US20080129961A1, “METHOD AND APPARATUS FOR MEASURING QUANTITY OF A FLUOROCHROME IN A BIOLOGICAL ENVIRONMENT” (priority 2006, published 2008)
